Literature values, collected in patent US7713983B2 (priority 2003, dated 2010).

Experiments:
[1] = system: neuropathic pain; details: in vivo
[2] = biological target: NaV1.3 (Homo sapiens, UniProt Q9NY46); details: read-out: TTX IC50
Chain of NaV1.3 (Q9NY46 whole entry, looked up): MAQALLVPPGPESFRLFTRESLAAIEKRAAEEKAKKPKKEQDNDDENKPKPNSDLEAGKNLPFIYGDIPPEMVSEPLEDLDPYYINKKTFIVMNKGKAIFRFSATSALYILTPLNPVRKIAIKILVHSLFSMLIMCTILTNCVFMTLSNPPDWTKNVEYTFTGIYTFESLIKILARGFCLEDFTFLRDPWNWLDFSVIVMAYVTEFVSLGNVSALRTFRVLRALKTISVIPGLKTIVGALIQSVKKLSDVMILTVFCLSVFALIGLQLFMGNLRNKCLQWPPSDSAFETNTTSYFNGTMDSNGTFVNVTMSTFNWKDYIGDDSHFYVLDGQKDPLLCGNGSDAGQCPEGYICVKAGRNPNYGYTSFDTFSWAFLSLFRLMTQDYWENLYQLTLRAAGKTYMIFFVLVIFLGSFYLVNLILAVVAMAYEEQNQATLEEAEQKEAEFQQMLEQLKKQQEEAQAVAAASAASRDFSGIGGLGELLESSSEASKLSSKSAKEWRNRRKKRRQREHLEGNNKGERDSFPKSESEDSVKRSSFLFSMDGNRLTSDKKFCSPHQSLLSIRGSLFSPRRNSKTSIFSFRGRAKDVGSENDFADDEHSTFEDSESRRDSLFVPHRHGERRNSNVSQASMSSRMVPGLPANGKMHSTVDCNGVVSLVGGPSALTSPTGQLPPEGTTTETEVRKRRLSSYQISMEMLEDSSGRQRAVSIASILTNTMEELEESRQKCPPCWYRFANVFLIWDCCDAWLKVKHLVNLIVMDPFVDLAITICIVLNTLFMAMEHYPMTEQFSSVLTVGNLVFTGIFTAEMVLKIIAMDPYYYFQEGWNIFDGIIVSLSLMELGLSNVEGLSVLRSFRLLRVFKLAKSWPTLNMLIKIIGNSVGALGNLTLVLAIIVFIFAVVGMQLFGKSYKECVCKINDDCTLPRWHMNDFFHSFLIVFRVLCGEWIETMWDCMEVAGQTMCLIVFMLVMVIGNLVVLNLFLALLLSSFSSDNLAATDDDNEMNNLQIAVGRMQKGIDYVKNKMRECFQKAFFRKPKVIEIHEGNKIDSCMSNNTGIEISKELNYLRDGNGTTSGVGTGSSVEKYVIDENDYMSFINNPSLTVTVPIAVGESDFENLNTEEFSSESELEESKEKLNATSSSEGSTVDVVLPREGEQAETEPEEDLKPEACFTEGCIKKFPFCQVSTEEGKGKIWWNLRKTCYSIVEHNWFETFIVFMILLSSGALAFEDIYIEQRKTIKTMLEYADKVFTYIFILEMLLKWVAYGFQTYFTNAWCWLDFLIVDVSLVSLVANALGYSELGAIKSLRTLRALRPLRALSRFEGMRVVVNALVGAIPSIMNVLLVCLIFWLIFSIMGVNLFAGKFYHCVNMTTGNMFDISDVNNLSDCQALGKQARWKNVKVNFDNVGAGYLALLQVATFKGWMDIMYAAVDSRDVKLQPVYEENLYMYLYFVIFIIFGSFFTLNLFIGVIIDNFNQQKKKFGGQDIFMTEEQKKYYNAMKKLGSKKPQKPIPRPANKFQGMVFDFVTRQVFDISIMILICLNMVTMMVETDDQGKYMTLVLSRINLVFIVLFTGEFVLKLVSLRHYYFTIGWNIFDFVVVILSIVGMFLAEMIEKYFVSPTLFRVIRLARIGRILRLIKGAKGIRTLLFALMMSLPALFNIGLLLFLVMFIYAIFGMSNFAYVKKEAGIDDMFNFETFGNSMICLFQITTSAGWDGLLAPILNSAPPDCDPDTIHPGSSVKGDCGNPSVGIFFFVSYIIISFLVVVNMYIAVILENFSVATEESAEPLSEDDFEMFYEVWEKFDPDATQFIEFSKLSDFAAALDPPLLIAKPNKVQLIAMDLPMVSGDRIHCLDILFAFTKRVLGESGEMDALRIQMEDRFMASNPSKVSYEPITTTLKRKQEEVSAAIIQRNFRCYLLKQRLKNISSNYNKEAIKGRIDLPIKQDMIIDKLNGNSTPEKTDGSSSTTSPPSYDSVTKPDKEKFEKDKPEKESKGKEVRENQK

Row | SMILES | share of patients in whom it works [1] | IC50 [2]
1 | NCC1(CC(=O)O)CCCCC1 [Gabapentin] | 60% | –
2 | NC1=N[C@H](O)[C@H]2[C@H]3O[C@]4(O)O[C@@H]([C@@H](O)[C@@]2(N1)[C@@H]4O)[C@]3(O)CO [TTX, tetrodotoxin] | – | 15 nM
